Data from patent publication US6825230B2, “Spiro and dispiro 1,2,4-trixolane antimalarials” (Medicines for Malaria Venture MMV, priority 2002, dated 2004).
In brackets after ≈: the same amount, converted by molar mass. Where two headings read alike, the source gives them in different places.

What was measured:
[1] = system: Schistosoma mansoni adult worms (49-day-old); assay: Effect on adult schistosomes (49-day-old) in infected mice; type: in vivo; settings: for % reduction of adult worms growth at day 49 after per os application of 400 mg/kg, TWR (%) / Adult worms day 49, per os 400 mg/kg, DEAD WORM (%): single 400 mg/kg per os
Description: Mice were infected with 100 Schistosoma mansoni cercariae on day 49 post-treatment. Each group was treated per os with OZ compounds at single doses of 200, 400, and 600 mg/kg. Untreated mice served as the control. All groups were killed 4 weeks after treatment and the liver and intestine were removed and separated. The liver and intestine were compressed and alive male and female worms could be seen and counted.

[2] = system: ANKA strain of P. berghei; assay: Single dose STI in vivo screen in infected mice; design: species or system Plasmodium berghei; settings: for Survival (days) 10 mg/kg po: single 10 mg/kg po in 3% ethanol and 7% Tween 80; for Survival (days) 10 mg/kg po / Survival (days) 10 mg/kg SSV po / Survival (days) 10 mg/kg sc: untreated 6-7 days; for Activity (%) 10 mg/kg po: single 10 mg/kg po in 3% ethanol and 7% Tween 80 on day 1 post-infection; for Activity (%) 10 mg/kg po / Activity (%) 10 mg/kg SSV po / Activity (%) 10 mg/kg sc / Activity (%) 3 mg/kg SSV po: percent reduction in parasitemia on day 3; for Survival (days) 10 mg/kg SSV po: single 10 mg/kg po in SSV; for Activity (%) 10 mg/kg SSV po: single 10 mg/kg po in standard suspending vehicle (SSV) on day 1 post-infection; for Survival (days) 10 mg/kg sc: single 10 mg/kg sc in 3% ethanol and 7% Tween 80; for Activity (%) 10 mg/kg sc: single 10 mg/kg sc in 3% ethanol and 7% Tween 80 on day 1 post-infection; for Survival (days) 3 mg/kg SSV po / Activity (%) 3 mg/kg SSV po: single 3 mg/kg po in SSV
[3] = system: chloroquine-resistant K1 strain of P. falciparum; assay: In vitro antimalarial semiautomated microdilution assay ([3H]-hypoxanthine incorporation), K1 strain; type: cell-based, Plasmodium falciparum; settings: Plasmodium falciparum
In short: (§1)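 Asynchronous stock-culture parasites (intraerythrocytic forms), serial compound dilutions; readout [3H]-hypoxanthine uptake; IC50 via Logit regression.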

[4] = system: chloroquine-sensitive NF54 strain of P. falciparum; assay: In vitro antimalarial semiautomated microdilution assay ([3H]-hypoxanthine incorporation), NF54 strain; type: cell-based, Plasmodium falciparum; settings: Plasmodium falciparum
In short: as §1

[5] = 49-day-old adults, total worm reduction rate
[6] = percentage of dead worm in the liver
[7] = K1, 72 h, read-out: IC50 (ng/ml) K1, chloroquine-resistant K1 strain, 72 h incubation
[8] = NF54, 72 h, read-out: IC50 (ng/ml) NF54, chloroquine-sensitive NF54 strain, 72 h incubation
[9] = chloroquine-sensitive NF54 strain, 72 h incubation, read-out: IC50 (ng/ml) NF54
[10] = chloroquine-resistant K1 strain, 72 h incubation, read-out: IC50 (ng/ml) K1

Structure (SMILES)	% reduction of adult worms growth at day 49 after per os application of 400 mg/kg, TWR (%) [1, 5]	Adult worms day 49, per os 400 mg/kg, DEAD WORM (%) [1, 6]	Survival (days) 10 mg/kg SSV po [2]	Activity (%) 10 mg/kg SSV po [2]	IC50 [3, 7]	Survival (days) 3 mg/kg SSV po [2]	further results
Clc1ccc(C2(c3ccc(Cl)cc3)OOC3(O2)C2CC4CC(C2)CC3C4)cc1 (stereo not drawn) [OZ43]	1%	0%	–	–	–	–	–
CC(=O)N1CCC2(CC1)OOC1(O2)C2CC3CC(C2)CC1C3 (stereo not drawn) [OZ49]	17%	10%	–	–	–	–	–
O=S1(=O)CCC2(CC1)OOC1(O2)C2CC3CC(C2)CC1C3 (stereo not drawn) [OZ50]	12%	4%	–	–	–	–	–
CCOC(=O)CC1CCC2(CC1)OOC1(O2)C2CC3CC(C2)CC1C3 (stereo not drawn) [OZ61]	8%	21%	–	–	–	–	–
c1ccc(C2CCC3(CC2)OOC2(O3)C3CCCC2CCC3)cc1 (stereo not drawn) [OZ67]	38%	0%	–	–	–	–	–
CC1(C)COC2(CCC3(CC2)OOC2(O3)C3CCCC2CCC3)OC1 (stereo not drawn) [OZ68]	17%	0%	–	–	–	–	–
O=C(O)C1CCC2(CC1)OOC1(O2)C2CC3CC(C2)CC1C3 (stereo not drawn) [OZ72]	0%	–	–	–	–	–	Adult worms day 49, per os 400 mg/kg, DEAD WORM (%) ([1]; percentage of dead worm in the liver, listed as OZ 72): 10%
OC1(c2ccc(F)cc2)CCC2(CC1)OOC1(O2)C2CC3CC(C2)CC1C3 (stereo not drawn) [OZ76]	32%	0%	–	–	–	–	–
CCS(=O)(=O)N1CCC2(CC1)OOC1(O2)C2CC3CC(C2)CC1C3 (stereo not drawn) [OZ79]	4%	0%	–	–	–	–	–
c1ccc(C2(c3ccccn3)OOC3(O2)C2CC4CC(C2)CC3C4)nc1 (stereo not drawn) [OZ81]	28%	0%	–	–	–	–	–
O=C(CO)N1CCC2(CC1)OOC1(O2)C2CC3CC(C2)CC1C3 (stereo not drawn) [OZ83]	7%	19%	–	–	–	–	–
O=[N+]([O-])c1cccc(C2(c3cccc([N+](=O)[O-])c3)OOC3(O2)C2CC4CC(C2)CC3C4)c1 (stereo not drawn) [OZ105, Adamantane-2-spiro-3′-5′,5′-bis(3′-nitrophenyl)-1′,2′,4′-trioxolane]	8%	0%	5.7 days	0%	5.4 ng/mL (≈ 12.3 nM)	–	Survival (days) 10 mg/kg po [2]: 5.7 days; Activity (%) 10 mg/kg po [2]: 16%; Survival (days) 10 mg/kg sc [2]: 6.3 days; Activity (%) 10 mg/kg sc [2]: 28%
NC(=O)OC1CCC2(CC1)OOC1(O2)C2CC3CC(C2)CC1C3 (stereo not drawn) [OZ107]	26%	4%	6.3 days	32%	1 ng/mL (≈ 3.09 nM)	–	Survival (days) 10 mg/kg po [2]: 6.3 days; Activity (%) 10 mg/kg po [2]: 70%; Survival (days) 10 mg/kg sc [2]: 8.0 days; Activity (%) 10 mg/kg sc [2]: 99.74%; IC50 [4, 8]: 0.3 ng/mL (≈ 0.928 nM)
CCN(CC)CC[C@H]1CC[C@]2(CC1)OOC1(O2)C2CC3CC(C2)CC1C3 (stereo partly drawn) [OZ126]	0%	9%	6.7 days	72%	–	–	Survival (days) 10 mg/kg po [2]: 7.0 days; Activity (%) 10 mg/kg po [2]: 55%; Survival (days) 10 mg/kg sc [2]: 8.5 days; Activity (%) 10 mg/kg sc [2]: 99.44%; IC50 [4, 9]: 0.5 ng/mL (≈ 1.38 nM); IC50 [3, 10]: 0.2 ng/mL (≈ 0.55 nM)
O=C(O)C1CCN(C(=O)C[C@H]2CC[C@]3(CC2)OO[C@]2(O3)C3CC4CC(C3)CC2C4)CC1 [OZ312]	–	–	7.2 days	43%	19 ng/mL (≈ 43.8 nM)	6.2 days	Activity (%) 3 mg/kg SSV po [2]: 13%; IC50 [4, 8]: 27 ng/mL (≈ 62.3 nM)
O=C(C[C@H]1CC[C@]2(CC1)OO[C@]1(O2)C2CC3CC(C2)CC1C3)NCCN1CCOCC1 [OZ313]	–	–	10.4 days	–	0.55 ng/mL (≈ 1.27 nM)	7.4 days	Activity (%) 3 mg/kg SSV po [2]: 58%; IC50 [4, 8]: 0.76 ng/mL (≈ 1.75 nM)
NC1(C(=O)NC[C@H]2CC[C@]3(CC2)OO[C@]2(O3)C3CC4CC(C3)CC2C4)CCCC1 [OZ317]	–	–	9.8 days	–	–	10.0 days	IC50 [4, 9]: 0.36 ng/mL (≈ 0.89 nM); IC50 [3, 10]: 0.33 ng/mL (≈ 0.816 nM)
NCCOc1ccc([C@H]2CC[C@]3(CC2)OO[C@]2(O3)C3CC4CC(C3)CC2C4)cc1 [OZ323]	–	–	15.6 days	99.98%	0.85 ng/mL (≈ 2.13 nM)	9.2 days	Activity (%) 3 mg/kg SSV po [2]: 99.92%; IC50 [4, 8]: 1.1 ng/mL (≈ 2.75 nM)
NC1(C(=O)NC[C@H]2CC[C@]3(CC2)OO[C@]2(O3)C3CC4CC(C3)CC2C4)CCCCC1 [OZ333]	–	–	9.2 days	–	–	8.0 days	Activity (%) 3 mg/kg SSV po [2]: 96%; IC50 [4, 9]: 0.44 ng/mL (≈ 1.05 nM); IC50 [3, 10]: 0.24 ng/mL (≈ 0.573 nM)
NOC[C@H]1CC[C@]2(CC1)OO[C@]1(O2)C2CC3CC(C2)CC1C3 [OZ334]	–	–	6.8 days	47%	28 ng/mL (≈ 90.5 nM)	6.6 days	Activity (%) 3 mg/kg SSV po [2]: 13%; IC50 [4, 8]: 20 ng/mL (≈ 64.6 nM)
NNC(=O)C[C@H]1CC[C@]2(CC1)OO[C@]1(O2)C2CC3CC(C2)CC1C3 [OZ340]	–	–	9.2 days	93%	4.9 ng/mL (≈ 14.6 nM)	6.4 days	Activity (%) 3 mg/kg SSV po [2]: 36%; IC50 [4, 8]: 2.9 ng/mL (≈ 8.62 nM)
O=C(C1CCCCC1)N1CC(=O)N2CCc3ccccc3C2C1 (stereo not drawn) [PRAZIQUANTEL, praziquantel, reference compound]	93%	89%	–	–	–	–	% reduction of adult worms growth at day 49 after per os application of 600 mg/kg, TWR (%) ([1]; single 600 mg/kg per os, 49-day-old adults, total worm reduction rate): 100/100%; Adult worms day 49, per os 600 mg/kg, DEAD WORM (%) ([1]; single 600 mg/kg per os, percentage of dead worm in the liver): 100/100%
